# Laboratory results taken from PMC10006169, “A phase I trial of LXS196, a protein kinase C (PKC) inhibitor, for metastatic uveal melanoma” (British Journal of Cancer, 2023).
# System: patients with MUM
# Assay: Adverse events suspected to be study drug related (NCI-CTCAE v4.03)
# Format: in vivo, human
# Method: Routine safety assessments, including laboratory assessments, physical examinations, vital signs and electrocardiograms (ECGs), were conducted at regular intervals throughout the study and more frequently as needed following patient assessment by the treating physician. Adverse events (AEs) were assessed continuously according to the National Cancer Institute Common Terminology Criteria for Adverse Events (NCI-CTCAE) v4.03.
smiles,measurement,setting,value
CC1(N)CCN(c2cccnc2NC(=O)c2nc(-c3ncccc3C(F)(F)F)cnc2N)CC1 [LXS196],"Nausea, grade ≥3",300 mg QD,0 n (%)
same,"Patients with ≥1 AE, all grades",300 mg QD,14 (93.3) n (%)
same,"Patients with ≥1 AE, grade ≥3",300 mg QD,2 (13.3) n (%)
same,"Rash, all grades",300 mg QD,3 (20.0) n (%)
same,"Rash, grade ≥3",300 mg QD,0 n (%)
same,"Vomiting, all grades",300 mg QD,5 (33.3) n (%)
same,"Vomiting, grade ≥3",300 mg QD,0 n (%)
same,"ALT increased, all grades",500 mg QD,3 (27.3) n (%)
same,"ALT increased, grade ≥3",500 mg QD,1 (9.1) n (%)
same,"AST increased, all grades",500 mg QD,4 (36.4) n (%)
same,"AST increased, grade ≥3",500 mg QD,1 (9.1) n (%)
same,"Asthenia, all grades",500 mg QD,2 (18.2) n (%)
same,"Asthenia, grade ≥3",500 mg QD,0 n (%)
same,"Blood creatinine increased, all grades",500 mg QD,0 n (%)
same,"Blood creatinine increased, grade ≥3",500 mg QD,0 n (%)
same,"Constipation, all grades",500 mg QD,0 n (%)
same,"Constipation, grade ≥3",500 mg QD,0 n (%)
same,"Diarrhoea, all grades",500 mg QD,4 (36.4) n (%)
same,"Diarrhoea, grade ≥3",500 mg QD,0 n (%)
same,"Dry skin, all grades",500 mg QD,0 n (%)
same,"Dry skin, grade ≥3",500 mg QD,0 n (%)
same,"Fatigue, all grades",500 mg QD,0 n (%)
same,"Fatigue, grade ≥3",500 mg QD,0 n (%)
same,"Hypotension, all grades",500 mg QD,4 (36.4) n (%)
same,"Hypotension, grade ≥3",500 mg QD,3 (27.3) n (%)
same,"Nausea, all grades",500 mg QD,8 (72.7) n (%)
same,"Nausea, grade ≥3",500 mg QD,0 n (%)
same,"Patients with ≥1 AE, all grades",500 mg QD,10 (90.9) n (%)
same,"Patients with ≥1 AE, grade ≥3",500 mg QD,4 (36.4) n (%)
same,"Rash, all grades",500 mg QD,0 n (%)
same,"Rash, grade ≥3",500 mg QD,0 n (%)
same,"Vomiting, all grades",500 mg QD,5 (45.5) n (%)
same,"Vomiting, grade ≥3",500 mg QD,0 n (%)
same,"ALT increased, all grades",800 mg QD,0 n (%)
same,"ALT increased, grade ≥3",800 mg QD,0 n (%)
same,"AST increased, all grades",800 mg QD,0 n (%)
same,"AST increased, grade ≥3",800 mg QD,0 n (%)
same,"Asthenia, all grades",800 mg QD,0 n (%)
same,"Asthenia, grade ≥3",800 mg QD,0 n (%)
same,"Blood creatinine increased, all grades",800 mg QD,0 n (%)
same,"Blood creatinine increased, grade ≥3",800 mg QD,0 n (%)
same,"Constipation, all grades",800 mg QD,0 n (%)
same,"Constipation, grade ≥3",800 mg QD,0 n (%)
same,"Diarrhoea, all grades",800 mg QD,1 (100) n (%)
same,"Diarrhoea, grade ≥3",800 mg QD,0 n (%)
same,"Dry skin, all grades",800 mg QD,0 n (%)
same,"Dry skin, grade ≥3",800 mg QD,0 n (%)
same,"Fatigue, all grades",800 mg QD,0 n (%)
same,"Fatigue, grade ≥3",800 mg QD,0 n (%)
same,"Hypotension, all grades",800 mg QD,1 (100) n (%)
same,"Hypotension, grade ≥3",800 mg QD,1 (100) n (%)
same,"Nausea, all grades",800 mg QD,1 (100) n (%)
same,"Nausea, grade ≥3",800 mg QD,0 n (%)
same,"Patients with ≥1 AE, all grades",800 mg QD,1 (100) n (%)
same,"Patients with ≥1 AE, grade ≥3",800 mg QD,1 (100) n (%)
same,"Rash, all grades",800 mg QD,0 n (%)
same,"Rash, grade ≥3",800 mg QD,0 n (%)
same,"Vomiting, all grades",800 mg QD,0 n (%)
same,"Vomiting, grade ≥3",800 mg QD,0 n (%)
same,"ALT increased, all grades",1000 mg QD,1 (25.0) n (%)
same,"ALT increased, grade ≥3",1000 mg QD,0 n (%)
same,"AST increased, all grades",1000 mg QD,0 n (%)
same,"AST increased, grade ≥3",1000 mg QD,0 n (%)
same,"Asthenia, all grades",1000 mg QD,0 n (%)
same,"Asthenia, grade ≥3",1000 mg QD,0 n (%)
same,"Blood creatinine increased, all grades",1000 mg QD,0 n (%)
same,"Blood creatinine increased, grade ≥3",1000 mg QD,0 n (%)
same,"Constipation, all grades",1000 mg QD,0 n (%)
same,"Constipation, grade ≥3",1000 mg QD,0 n (%)
same,"Diarrhoea, all grades",1000 mg QD,4 (100) n (%)
same,"Diarrhoea, grade ≥3",1000 mg QD,0 n (%)
same,"Dry skin, all grades",1000 mg QD,1 (25.0) n (%)
same,"Dry skin, grade ≥3",1000 mg QD,0 n (%)
same,"Fatigue, all grades",1000 mg QD,3 (75.0) n (%)
same,"Fatigue, grade ≥3",1000 mg QD,0 n (%)
same,"Hypotension, all grades",1000 mg QD,2 (50.0) n (%)
same,"Hypotension, grade ≥3",1000 mg QD,1 (25.0) n (%)
same,"Nausea, all grades",1000 mg QD,4 (100) n (%)
same,"Nausea, grade ≥3",1000 mg QD,0 n (%)
same,"Patients with ≥1 AE, all grades",1000 mg QD,4 (100) n (%)
same,"Patients with ≥1 AE, grade ≥3",1000 mg QD,2 (50.0) n (%)
same,"Rash, all grades",1000 mg QD,0 n (%)
same,"Rash, grade ≥3",1000 mg QD,0 n (%)
same,"Vomiting, all grades",1000 mg QD,0 n (%)
same,"Vomiting, grade ≥3",1000 mg QD,0 n (%)
same,"ALT increased, all grades",All BID,8 (26.7) n (%)
same,"ALT increased, grade ≥3",All BID,2 (6.7) n (%)
same,"AST increased, all grades",All BID,6 (20.0) n (%)
same,"AST increased, grade ≥3",All BID,2 (6.7) n (%)
same,"Asthenia, all grades",All BID,7 (23.3) n (%)
same,"Asthenia, grade ≥3",All BID,0 n (%)
same,"Blood creatinine increased, all grades",All BID,5 (16.7) n (%)
same,"Blood creatinine increased, grade ≥3",All BID,0 n (%)
same,"Constipation, all grades",All BID,3 (10.0) n (%)
same,"Constipation, grade ≥3",All BID,0 n (%)
same,"Diarrhoea, all grades",All BID,16 (53.3) n (%)
same,"Diarrhoea, grade ≥3",All BID,1 (3.3) n (%)
